{"source": "patent US8080660B2", "about": "“Metal complex glycogen synthase kinase 3 inhibitors” (The Trustees Of The University Of Pennsylvania, priority 2004, dated 2011)", "molecular_target": "T1, GSK-3α (Homo sapiens, UniProt P49840)", "T1 construct": "purchased Upstate Biotechnology USA", "T1 sequence (P49840 whole entry)": "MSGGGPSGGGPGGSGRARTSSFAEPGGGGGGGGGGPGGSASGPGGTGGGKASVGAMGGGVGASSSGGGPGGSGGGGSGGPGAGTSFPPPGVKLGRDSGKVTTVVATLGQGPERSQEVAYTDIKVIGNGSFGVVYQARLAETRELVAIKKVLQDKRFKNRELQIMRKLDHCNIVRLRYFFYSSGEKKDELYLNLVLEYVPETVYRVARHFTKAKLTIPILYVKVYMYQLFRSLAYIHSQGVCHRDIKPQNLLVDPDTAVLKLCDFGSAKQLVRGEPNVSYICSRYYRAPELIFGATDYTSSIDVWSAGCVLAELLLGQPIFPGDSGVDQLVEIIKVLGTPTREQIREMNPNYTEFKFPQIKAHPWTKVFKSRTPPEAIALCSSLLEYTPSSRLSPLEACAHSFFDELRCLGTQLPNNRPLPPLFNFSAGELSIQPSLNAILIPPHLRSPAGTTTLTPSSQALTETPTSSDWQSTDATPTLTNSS", "assay": "GSK-3α kinase inhibition assay ([γ-32P]ATP phosphorylation of substrate)", "format": "biochemical", "details": "20 μM ATP", "method": "Protein kinases and substrates were purchased from Upstate Biotechnology USA, except for poly(Glu-Tyr 4:1) which was obtained from Sigma-Aldrich.\nAfter 15 mins, the reaction was initiated by adding ATP to a final concentration of 20 μM, including approximately 0.04 μCi/μl [γ-^32P]ATP. Reactions were performed in a total volume of 25 μl. After 30 min, the reaction was terminated by spotting 17.5 μl on a circular P81 phosphocellulose paper (diameter 2.1 cm, Whatman) followed by washing four times (five minutes each wash) with 0.75% phosphoric acid and once with acetone. The dried P81 papers were transferred to a scintillation vial and 5 ml of scintillation cocktail were added and the counts per minute (CPM) determined with a Beckmann 6000 scintillation counter.", "data": [{"smiles": "O=C1NC(=O)c2c1c1cccnc1c1[nH]c3ccccc3c21", "note": "[Compound 4]", "values": [{"measurement": "IC50", "value": 50, "unit": "µM"}]}]}
